Data published in article PMC4706797 (Journal of pharmaceutical sciences, 2015).

How the values were obtained:
MDA-MB-231 cells = test: In vitro migration; format: cell-based
MDA-MB-231 = test: Cytotoxicity assay; format: cell-based; conditions: Homo sapiens, MDA-MB-231, 48 h, read-out: IC50 (μM) DTX only
cyclin D1 = test: Western blot, cyclin D1 expression in MDA-MB-231 cells; format: cell-based; conditions: MDA-MB-231, DTX 0.1 μM and/or 1 μM PPL, 48 hr, densitometry
HCC1806 = test: Cytotoxicity assay; format: cell-based; conditions: Homo sapiens, HCC1806, 48 h, read-out: IC50 (μM) DTX only
Bcl-2 = test: Western blot, Bcl-2 expression in MDA-MB-231 cells; format: cell-based; conditions: MDA-MB-231, DTX 0.1 μM and/or 1 μM PPL, 48 hr, densitometry
HCC70 = test: Cytotoxicity assay; format: cell-based; conditions: Homo sapiens, HCC70, 48 h, read-out: IC50 (μM) DTX only
[1] = In vivo pharmacokinetic in rats; design: species or system Sprague Dawley rats
HS578T = test: Cytotoxicity assay; format: cell-based; conditions: Homo sapiens, Hs-578T, 48 h, read-out: IC50 (μM) DTX only
p53 = test: Western blot, p53 expression in MDA-MB-231 cells; format: cell-based; conditions: MDA-MB-231, DTX 0.1 μM and/or 1 μM PPL, 48 hr, densitometry
survivin = test: Western blot, survivin expression in MDA-MB-231 cells; format: cell-based; conditions: MDA-MB-231, DTX 0.1 μM and/or 1 μM PPL, 48 hr, densitometry
MDA-MB-468 = test: Cytotoxicity assay; format: cell-based; conditions: Homo sapiens, MDA-MB-468, 48 h, read-out: IC50 (μM) DTX only
CYP3A4 = conditions: 50 μM PPL or CYA, 5 μM TST, human liver microsomes, over 60 min
P-gp = P-gp (Homo sapiens, UniProt P08183); test: Caco-2 uptake study of P-gp substrates; conditions: Caco-2 cells, 50 μM PPL or verapamil
Chain of P-gp (P08183 whole entry): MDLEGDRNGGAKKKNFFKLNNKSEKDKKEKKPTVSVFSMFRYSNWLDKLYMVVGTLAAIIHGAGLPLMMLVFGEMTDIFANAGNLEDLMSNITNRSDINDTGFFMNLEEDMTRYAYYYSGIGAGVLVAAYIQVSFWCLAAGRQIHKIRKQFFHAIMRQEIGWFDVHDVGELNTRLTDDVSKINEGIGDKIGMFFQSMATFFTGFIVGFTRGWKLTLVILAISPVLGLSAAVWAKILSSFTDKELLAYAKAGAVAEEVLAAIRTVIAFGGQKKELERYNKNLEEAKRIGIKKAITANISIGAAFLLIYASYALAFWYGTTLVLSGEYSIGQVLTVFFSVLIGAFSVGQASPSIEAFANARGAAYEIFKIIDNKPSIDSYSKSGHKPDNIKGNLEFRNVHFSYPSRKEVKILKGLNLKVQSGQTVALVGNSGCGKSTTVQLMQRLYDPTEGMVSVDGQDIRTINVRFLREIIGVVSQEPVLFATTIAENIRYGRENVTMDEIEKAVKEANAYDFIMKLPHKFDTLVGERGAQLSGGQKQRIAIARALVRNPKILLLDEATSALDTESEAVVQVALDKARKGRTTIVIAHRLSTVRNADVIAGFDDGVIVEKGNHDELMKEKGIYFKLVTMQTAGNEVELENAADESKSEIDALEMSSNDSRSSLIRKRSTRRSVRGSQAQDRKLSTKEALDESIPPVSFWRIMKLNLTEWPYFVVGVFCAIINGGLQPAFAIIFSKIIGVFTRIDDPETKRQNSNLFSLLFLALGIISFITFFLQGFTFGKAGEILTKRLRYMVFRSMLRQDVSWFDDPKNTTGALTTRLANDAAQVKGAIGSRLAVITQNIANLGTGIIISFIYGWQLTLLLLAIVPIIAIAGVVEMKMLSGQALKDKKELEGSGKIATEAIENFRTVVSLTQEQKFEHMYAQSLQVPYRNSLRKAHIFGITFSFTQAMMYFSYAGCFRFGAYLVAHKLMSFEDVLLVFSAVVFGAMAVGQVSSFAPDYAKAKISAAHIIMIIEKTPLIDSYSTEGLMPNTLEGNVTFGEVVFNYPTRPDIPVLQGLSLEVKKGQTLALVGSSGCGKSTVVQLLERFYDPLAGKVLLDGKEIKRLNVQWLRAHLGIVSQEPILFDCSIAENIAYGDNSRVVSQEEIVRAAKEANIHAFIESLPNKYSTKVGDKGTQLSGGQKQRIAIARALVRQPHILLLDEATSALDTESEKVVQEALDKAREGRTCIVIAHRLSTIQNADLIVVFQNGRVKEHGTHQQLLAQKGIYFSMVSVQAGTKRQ

[2] = test system: triple negative breast cancer (TNBC) cell lines; test: Cytotoxicity in TNBC cell lines; format: cell-based
[3] = oral co-administration with the taxane; cited from earlier work
[4] = Sprague Dawley, rat, plasma, iv, 5 mg/kg

For `CC(=O)O[C@@]12CO[C@@H]1C[C@H](O)[C@@]1(C)C(=O)[C@H](O)C3=C(C)[C@@H](OC(=O)[C@H](O)[C@@H](NC(=O)OC(C)(C)C)c4ccccc4)C[C@@](O)([C@@H](OC(=O)c4ccccc4)[C@H]21)C3(C)C` [DTX, Docetaxel], the “percent bridging of scratch area” value (MDA-MB-231 cells; MDA-MB-231, 48 h, 0.1 μM DTX (combination with 1 μM PPL)) was 49.3%, the “percent bridging of scratch area” value (MDA-MB-231 cells; MDA-MB-231, 48 h, 0.4 μM DTX (combination with 1 μM PPL)) was 33.8% and the IC50 (MDA-MB-231) was 0.458 ± 0.081 µM. The “cyclin D1 relative expression reduced compared to untreated control” value (cyclin D1) was 0.8 fold, the IC50 (HCC1806) was 0.0022 ± 0.001 µM and the “Bcl-2 expression reduced compared to untreated control” value (Bcl-2) was 2.59 fold. The IC50 (HCC70) was 0.019 ± 0.008 µM, the “Absolute BA” value ([1]; SD rats, oral DTX 10 mg/kg (PPL 50 mg/kg where co-administered) vs IV 5 mg/kg) was 9.26% and the “time after which DTX plasma concentration was non-detectable” value ([1]; SD rats, oral administration) was 8 h. For the same compound, the AUC [1, 4] was 5290 ± 1100 ng·h/mL, the Cmax [1, 4] was 6100 ± 1700 ng/mL and the MRT [1, 4] was 1.99 ± 0.36 h. For the same compound, the half-life [1, 4] was 6.67 ± 1.6 h, the IC50 (HS578T) was 0.077 ± 0.013 µM and the “increase in expression of p53 compared to untreated control” value (p53) was 1.2 fold. For the same compound, the “survivin expression down regulated compared to control” value (survivin) was 1.03 fold and the IC50 (MDA-MB-468) was 0.36 ± 0.069 µM.
In the case of `COc1cc(/C=C/C(=O)N2CCC=CC2=O)cc(OC)c1OC` [PPL, Piperlongumine], the “percent bridging of migration area” value (MDA-MB-231 cells; MDA-MB-231, 48 h, 1 μM PPL alone) is reported as “comparable to control”, the anti-migration effect (MDA-MB-231 cells; PPL at concentration below 4 μM) is reported as “no anti-migration effect” and the “cyclin D1 relative expression reduced compared to untreated control” value (cyclin D1) is reported as 2.10 fold. The “Bcl-2 expression reduced compared to untreated control” value (Bcl-2) was 2.74 fold, the “reduction in TST metabolism” value (CYP3A4) was ~50% and the “intracellular uptake of R123 (green fluorescence intensity)” value (P-gp; 1 μM rhodamine 123, 90 min, qualitative) was “green fluorescence intensity was higher”. For the same compound, the “higher intracellular accumulation (uptake) of DTX” value (P-gp; 5 μM DTX, 90 min) was 1.34 fold, the cytotoxicity ([2]; PPL at 1 μM) was “no cytotoxcity” and the cell killing ([2]; PPL below 4 μM) was “not shown a significant cell killing”. The “increase in expression of p53 compared to untreated control” value (p53) was 1.1 fold and the “survivin expression down regulated compared to control” value (survivin) was 1.19 fold.
For `O=C(/C=C/C=C/c1ccc2c(c1)OCO2)N1CCCCC1` [piperine], the “anticancer and synergistic effect with docetaxel” value ([2]; in vitro studies, data not shown) was “did not show potent anticancer and synergistic effect”.
For `CC(C)c1nc(CN(C)C(=O)N[C@H](C(=O)N[C@@H](Cc2ccccc2)C[C@H](O)[C@H](Cc2ccccc2)NC(=O)OCc2cncs2)C(C)C)cs1` [ritonavir], the “increase in plasma concentrations of docetaxel” value [3] is listed as 7.3 fold and the “increase in plasma concentrations of paclitaxel” value [3] is listed as 2.5 fold.
